From patent US20100298141A1, “SUBSTITUTED PYRIDINE N-OXIDE HERBICIDES” (E. I. DU PONT DE NEMOURS AND COMPANY, priority 2007, published 2010)

Legend:
morningglory [1] = experiment: Test A pre-/postemergence greenhouse test; format: in vivo, Ipomoea spp.; conditions: for Plant response rating, Morningglory: 0 to 100 scale where 0 is no effect and 100 is complete control; for Morningglory plant response rating: 0 to 100 scale
Summary of the method: (§1)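 Test compounds in non-phytotoxic solvent with surfactant were applied as a preemergence soil spray to seeded loam/sand pots and, concurrently, postemergence to plants at 2–10 cm, one- to two-leaf stage. About ten days in greenhouse, then injury visually rated against untreated controls.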

redroot pigweed = experiment: Test A pre-/postemergence greenhouse test; format: in vivo, Amaranthus retroflexus; conditions: for Plant response rating, Pigweed: 0 to 100 scale where 0 is no effect and 100 is complete control; for Pigweed plant response rating: 0 to 100 scale
Summary of the method: as §1

corn [2] = experiment: Test A pre-/postemergence greenhouse test; format: in vivo, Zea mays; conditions: for Plant response rating, Corn: 0 to 100 scale where 0 is no effect and 100 is complete control; for Corn plant response rating: 0 to 100 scale
Summary of the method: as §1

Italian ryegrass = experiment: Test C pre-/postemergence test; format: in vivo, Lolium multiflorum
Summary of the method: (§2)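 Test chemicals were formulated with surfactant in a non-phytotoxic solvent and sprayed both on freshly planted seeds (preemergence) and on 1- to 4-leaf plants of 2–18 cm (postemergence). Flooded-paddy pots received compound directly into 3 cm of standing water, maintained for the test.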

wheat = experiment: Test C pre-/postemergence test; format: in vivo, Triticum aestivum
Summary of the method: as §2

wild oat = experiment: Test C pre-/postemergence test; format: in vivo, Avena fatua
Summary of the method: as §2

bermudagrass = experiment: Test C pre-/postemergence test; format: in vivo, Cynodon dactylon
Summary of the method: as §2

cocklebur = experiment: Test C pre-/postemergence test; format: in vivo, Xanthium strumarium; conditions: for Cocklebur plant response rating: preemergence, scale 0 (no effect) to 100 (complete control)
Summary of the method: as §2

corn [3] = experiment: Test C pre-/postemergence test; format: in vivo, Zea mays
Summary of the method: as §2

giant foxtail = experiment: Test C pre-/postemergence test; format: in vivo, Setaria faberii
Summary of the method: as §2

johnsongrass = experiment: Test C pre-/postemergence test; format: in vivo, Sorghum halepense
Summary of the method: as §2

kochia = experiment: Test C pre-/postemergence test; format: in vivo, Kochia scoparia
Summary of the method: as §2

morningglory [4] = experiment: Test C pre-/postemergence test; format: in vivo, Ipomoea coccinea
Summary of the method: as §2

eastern black nightshade = experiment: Test C pre-/postemergence test; format: in vivo, Solanum ptycanthum
Summary of the method: as §2

yellow nutsedge = experiment: Test C pre-/postemergence test; format: in vivo, Cyperus esculentus
Summary of the method: as §2

[5] = tested on: common (oilseed) sunflower; experiment: Test C pre-/postemergence test; format: in vivo, Helianthus annuus
Summary of the method: as §2

rice = experiment: Test C flooded paddy test; format: in vivo, Oryza sativa; conditions: Flood
Summary of the method: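 Flooded 3 cm over soil; compound into paddy water; depth kept constant. Greenhouse 13–15 d.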

[6] = Postemergence, 500 g ai/ha, 0 is no effect, 100 is complete control
[7] = Preemergence, 125 g ai/ha, 0 no effect, 100 complete control
[8] = 62 g ai/ha, Preemergence, scale 0 to 100
[9] = 125 g ai/ha, preemergence, scale 0 (no effect) to 100 (complete control)
[10] = Postemergence, 125 g ai/ha, scale 0 to 100, 0 no effect, 100 complete control
[11] = Postemergence, 250 g ai/ha, scale 0 to 100, 0 no effect, 100 complete control
[12] = Preemergence, 31 g ai/ha, scale 0 to 100 (0 no effect, 100 complete control)
[13] = preemergence, 250 g ai/ha, scale 0 (no effect) to 100 (complete control)
[14] = Postemergence, 62 g ai/ha, scale 0 to 100, 0 no effect, 100 complete control

Cn1nc(C(F)(F)F)c(C[S+]([O-])c2ccc(Cl)c[n+]2[O-])c1OCC(F)(F)F (racemic) [Compound 62]
Plant response rating, Morningglory (morningglory [1]; Postemergence, 125 g ai/ha): 90 | Morningglory plant response rating (morningglory [1]; [6]): 100 | Morningglory plant response rating (morningglory [1]; [7]): 90 | Plant response rating, Morningglory (morningglory [1]; Preemergence, 500 g ai/ha): 100 | Plant response rating, Pigweed (redroot pigweed; Postemergence, 125 g ai/ha): 60 | Pigweed plant response rating (redroot pigweed; [6]): 80 | Pigweed plant response rating (redroot pigweed; [7]): 100 | Plant response rating, Pigweed (redroot pigweed; Preemergence, 500 g ai/ha): 100 | Plant response rating, Corn (corn [2]; Postemergence, 125 g ai/ha): 50 | Corn plant response rating (corn [2]; [6]): 70 | Corn plant response rating (corn [2]; [7]): 80 | Plant response rating, Corn (corn [2]; Preemergence, 500 g ai/ha): 90 | Ryegrass, Italian plant response rating (Italian ryegrass; [8]): 85 | Ryegrass, Italian plant response rating (Italian ryegrass; [9]): 90 | Plant response rating (0 to 100), Ryegrass, Italian (Italian ryegrass; Postemergence, 31 g ai/ha): 0 | Plant response rating (0 to 100), Ryegrass, Italian (Italian ryegrass; Postemergence, 62 g ai/ha): 0 | Plant response rating, Ryegrass, Italian (Italian ryegrass; [10]): 80 | Plant response rating, Ryegrass, Italian (Italian ryegrass; [11]): 90 | Plant response rating, Ryegrass, Italian (Italian ryegrass; [12]): 70 | Ryegrass, Italian plant response rating (Italian ryegrass; [13]): 100 | Wheat plant response rating (wheat; [8]): 55 | Wheat plant response rating (wheat; [9]): 80 | Plant response rating (0 to 100), Wheat (wheat; Postemergence, 31 g ai/ha): 0 | Plant response rating (0 to 100), Wheat (wheat; Postemergence, 62 g ai/ha): 10 | Plant response rating, Wheat (wheat; [10]): 55 | Plant response rating, Wheat (wheat; [11]): 60 | Plant response rating, Wheat (wheat; [12]): 40 | Wheat plant response rating (wheat; [13]): 95 | Oat, Wild plant response rating (wild oat; [8]): 85 | Oat, Wild plant response rating (wild oat; [9]): 95 | Plant response rating (0 to 100), Oat, Wild (wild oat; Postemergence, 31 g ai/ha): 0 | Plant response rating, Oat, Wild (wild oat; [14]): 0 | Plant response rating, Oat, Wild (wild oat; [10]): 30 | Plant response rating, Oat, Wild (wild oat; [11]): 50 | Plant response rating, Oat, Wild (wild oat; [12]): 70 | Oat, Wild plant response rating (wild oat; [13]): 100 | Bermudagrass plant response rating (bermudagrass; 62 g ai/ha, Preemergence, scale 0 to 100 (0 no effect, 100 complete control)): 100 | Bermudagrass plant response rating (bermudagrass; [9]): 100 | Plant response rating (0 to 100), Bermudagrass (bermudagrass; Postemergence, 31 g ai/ha): 0 | Plant response rating, Bermudagrass (bermudagrass; [14]): 0 | Plant response rating, Bermudagrass (bermudagrass; [10]): 30 | Plant response rating, Bermudagrass (bermudagrass; [11]): 35 | Plant response rating, Bermudagrass (bermudagrass; [12]): 100 | Bermudagrass plant response rating (bermudagrass; [13]): 100 | Cocklebur plant response rating (cocklebur; 125 g ai/ha): 30 | Plant response rating (0 to 100), Cocklebur (cocklebur; Postemergence, 31 g ai/ha): 0 | Plant response rating, Cocklebur (cocklebur; [14]): 0 | Plant response rating, Cocklebur (cocklebur; [10]): 0 | Plant response rating, Cocklebur (cocklebur; [11]): 0 | Plant response rating, Cocklebur (cocklebur; [12]): 0 | Cocklebur plant response rating (cocklebur; 250 g ai/ha): 60 | Corn plant response rating (corn [3]; [8]): 98 | Corn plant response rating (corn [3]; [9]): 100 | Plant response rating (0 to 100), Corn (corn [3]; Postemergence, 31 g ai/ha): 0 | Plant response rating, Corn (corn [3]; [14]): 0 | Plant response rating, Corn (corn [3]; [10]): 0 | Plant response rating, Corn (corn [3]; [11]): 10 | Plant response rating, Corn (corn [3]; [12]): 80 | Corn plant response rating (corn [3]; [13]): 100 | Foxtail, Giant plant response rating (giant foxtail; [8]): 100 | Foxtail, Giant plant response rating (giant foxtail; [9]): 100 | Plant response rating (0 to 100), Foxtail, Giant (giant foxtail; Postemergence, 31 g ai/ha): 0 | Plant response rating, Foxtail, Giant (giant foxtail; [14]): 0 | Plant response rating, Foxtail, Giant (giant foxtail; [10]): 40 | Plant response rating, Foxtail, Giant (giant foxtail; [11]): 70 | Plant response rating, Foxtail, Giant (giant foxtail; [12]): 70 | Foxtail, Giant plant response rating (giant foxtail; [13]): 100 | Johnsongrass plant response rating (johnsongrass; [8]): 100 | Johnsongrass plant response rating (johnsongrass; [9]): 100 | Plant response rating (0 to 100), Johnsongrass (johnsongrass; Postemergence, 31 g ai/ha): 0 | Plant response rating, Johnsongrass (johnsongrass; [14]): 0 | Plant response rating, Johnsongrass (johnsongrass; [10]): 0 | Plant response rating, Johnsongrass (johnsongrass; [11]): 0 | Plant response rating, Johnsongrass (johnsongrass; [12]): 70 | Johnsongrass plant response rating (johnsongrass; [13]): 100 | Kochia plant response rating (kochia; [8]): 90 | Kochia plant response rating (kochia; [9]): 100 | Plant response rating (0 to 100), Kochia (kochia; Postemergence, 31 g ai/ha): 0 | Plant response rating, Kochia (kochia; [14]): 0 | Plant response rating, Kochia (kochia; [10]): 0 | Plant response rating, Kochia (kochia; [11]): 10 | Plant response rating, Kochia (kochia; [12]): 85 | Kochia plant response rating (kochia; [13]): 100 | Morningglory plant response rating (morningglory [4]; [8]): 90 | Morningglory plant response rating (morningglory [4]; [9]): 100 | Plant response rating (0 to 100), Morningglory (morningglory [4]; Postemergence, 31 g ai/ha): 0 | Plant response rating, Morningglory (morningglory [4]; [14]): 0 | Plant response rating, Morningglory (morningglory [4]; [10]): 0 | Plant response rating, Morningglory (morningglory [4]; [11]): 30 | Plant response rating, Morningglory (morningglory [4]; [12]): 50 | Morningglory plant response rating (morningglory [4]; [13]): 100 | Nightshade plant response rating (eastern black nightshade; [8]): 100 | Nightshade plant response rating (eastern black nightshade; [9]): 100 | Plant response rating, Nightshade (eastern black nightshade; [12]): 100 | Nightshade plant response rating (eastern black nightshade; [13]): 100 | Nutsedge, Yellow plant response rating (yellow nutsedge; [8]): 40 | Nutsedge, Yellow plant response rating (yellow nutsedge; [9]): 70 | Plant response rating (0 to 100), Nutsedge, Yellow (yellow nutsedge; Postemergence, 31 g ai/ha): 0 | Plant response rating, Nutsedge, Yellow (yellow nutsedge; [14]): 0 | Plant response rating, Nutsedge, Yellow (yellow nutsedge; [10]): 0 | Plant response rating, Nutsedge, Yellow (yellow nutsedge; [11]): 0 | Plant response rating, Nutsedge, Yellow (yellow nutsedge; [12]): 0 | Nutsedge, Yellow plant response rating (yellow nutsedge; [13]): 100 | Sunflower plant response rating [5, 8]: 75 | Sunflower plant response rating [5, 9]: 80 | Plant response rating, Sunflower [5, 12]: 50 | Sunflower plant response rating [5, 13]: 80 | Plant response rating, Rice (rice; 62 g ai/ha, scale 0 to 100 (0 no effect, 100 complete control)): 60 | Plant response rating, Rice (rice; 250 g ai/ha, scale 0 to 100, 0 no effect, 100 complete control, 13 to 15 days): 90
